Earlier results as cited in patent US9913840B2, “Formulations for aripiprazole delivery transdermally” (Corium International, Inc., priority 2015, dated 2018).

Details: at room temperature

- aqueous solubility: less than 1 μg/mL
SMILES: O=C1CCc2ccc(OCCCCN3CCN(c4cccc(Cl)c4Cl)CC3)cc2N1 [Aripiprazole]
